Measurements reported in ChEMBL document CHEMBL3885861, “Open TG-GATES”.

Organism: Rattus norvegicus
Assay: Open TG-GATES - Regimen: Single
Type: toxicity, organism-based, Sprague-Dawley
Design: regimen Single, gender Male, age 6 weeks
Conditions: in vivo, po, route gavage; for Hb / Ht / Lym / MCHC / MCV / Mono / Neu / PT / Plat / RBC / Ret / WBC / APTT / Bas / Eos / Fbg: tissue Blood; for KIDNEY_L / KIDNEY_R / KIDNEY_TOTAL: tissue Kidney; for LIVER: tissue Liver; for ALP / ALT / AST / BUN / CRE / Ca / Cl / DBIL / IP / LDH / Na / PL / RALB / TBIL / TC / TG / TP / gamma-GTP / GLC: tissue Plasma
[1] = 120 mg/kg, 3 h, dose level Middle

## CC(C)N(CCC(C(N)=O)(c1ccccc1)c1ccccn1)C(C)C (centres undefined) [DISOPYRAMIDE]
40 mg/kg, 3 h, dose level Low
  Hb: 13 g/dL
  Ht: 40.8%
  Lym: 79.6%
  MCHC: 32%
  MCV: 64.4 fL
  Mono: 2.6%
  Neu: 15.8%
  PT: 15.5 s
  Plat: 122.4 x10_4/uL
  RBC: 633.6 x10_4/ul
  Ret: 8.2%
  WBC: 102.4 x10_2/uL
  KIDNEY_L: 0.9 g
  KIDNEY_R: 1 g
  KIDNEY_TOTAL: 1.9 g
  LIVER: 9.9 g
  ALP: 1280.4 IU/L
  ALT: 48.2 IU/L
  AST: 73.2 IU/L
  BUN: 10.6 mg/dL
  CRE: 0.2 mg/dL
  Ca: 10.7 mg/dL
  Cl: 107.4 meq/L
  DBIL: 0 mg/dL
  IP: 8.5 mg/dL
  LDH: 163.4 IU/L
  Na: 140.8 meq/L
  PL: 143.2 mg/dL
  RALB: 3 g/dL
  TBIL: 0.002 mg/dL
  TC: 82.4 mg/dL
  TG: 60.6 mg/dL
  TP: 5.5 g/dL
  gamma-GTP: 1.6 IU/L
40 mg/kg, 6 h, dose level Low
  TERMINAL_BW: 212.3 g
  APTT: 21.2 s
  Bas: 0%
  Eos: 0.6%
  Fbg: 307.6 mg/dL
  Hb: 13 g/dL
  Ht: 40.9%
  Lym: 80.6%
  MCHC: 31.8%
  MCV: 64.3 fL
  Mono: 2.4%
  Neu: 15.8%
  PT: 15.5 s
  Plat: 119.9 x10_4/uL
  RBC: 635.8 x10_4/ul
  Ret: 8.1%
  WBC: 80.4 x10_2/uL
  KIDNEY_L: 1 g
  KIDNEY_R: 1 g
  KIDNEY_TOTAL: 2 g
  LIVER: 9.3 g
  ALP: 1258.6 IU/L
  ALT: 40 IU/L
  AST: 71.2 IU/L
  BUN: 12.4 mg/dL
  CRE: 0.1 mg/dL
  Ca: 10.8 mg/dL
  Cl: 106.2 meq/L
  DBIL: 0 mg/dL
  GLC: 168.6 mg/dL
  IP: 9.5 mg/dL
  LDH: 161.8 IU/L
  Na: 140 meq/L
  PL: 132.2 mg/dL
  RALB: 3 g/dL
  TBIL: 0.008 mg/dL
  TC: 75 mg/dL
  TG: 75.8 mg/dL
  TP: 5.4 g/dL
  gamma-GTP: 1 IU/L
40 mg/kg, 9 h, dose level Low
  TERMINAL_BW: 203.3 g
  APTT: 21.6 s
  Bas: 0%
  Eos: 0.6%
  Fbg: 328.4 mg/dL
  Hb: 13 g/dL
  Ht: 40.3%
  Lym: 77.6%
  MCHC: 32.3%
  MCV: 64 fL
  Mono: 2%
  PT: 15.6 s
  Plat: 124.6 x10_4/uL
  RBC: 630.4 x10_4/ul
  Ret: 7.9%
  WBC: 88.7 x10_2/uL
  KIDNEY_L: 0.9 g
  KIDNEY_R: 1 g
  KIDNEY_TOTAL: 1.9 g
  LIVER: 8.7 g
  ALP: 1420.4 IU/L
  ALT: 34.2 IU/L
  AST: 68.6 IU/L
  BUN: 12.4 mg/dL
  CRE: 0.1 mg/dL
  Ca: 10.8 mg/dL
  Cl: 107.2 meq/L
  DBIL: 0 mg/dL
  GLC: 169.6 mg/dL
  IP: 9.5 mg/dL
  LDH: 151.6 IU/L
  Na: 140.8 meq/L
  PL: 129.4 mg/dL
  RALB: 3.1 g/dL
  TBIL: 0.008 mg/dL
  TC: 75.4 mg/dL
  TG: 58.2 mg/dL
  TP: 5.5 g/dL
  gamma-GTP: 1.2 IU/L
40 mg/kg, 24 h, dose level Low
  TERMINAL_BW: 217.8 g
  APTT: 22.7 s
  Bas: 0%
  Eos: 0.8%
  Fbg: 306 mg/dL
  Hb: 13.2 g/dL
  Ht: 40.2%
  Lym: 79.4%
  MCHC: 32.8%
  MCV: 64.5 fL
  Mono: 1.8%
  Neu: 17.2%
  PT: 15.3 s
  Plat: 115.3 x10_4/uL
  RBC: 623 x10_4/ul
  Ret: 7%
  WBC: 91.1 x10_2/uL
  KIDNEY_L: 0.9 g
  KIDNEY_R: 1 g
  KIDNEY_TOTAL: 1.9 g
  LIVER: 10.5 g
  ALP: 1700.4 IU/L
  ALT: 47.2 IU/L
  AST: 71.8 IU/L
  BUN: 15.4 mg/dL
  CRE: 0.1 mg/dL
  Ca: 10.6 mg/dL
  Cl: 105.6 meq/L
  DBIL: 0 mg/dL
  IP: 8 mg/dL
  LDH: 156.2 IU/L
  Na: 142.8 meq/L
  PL: 147 mg/dL
  RALB: 3 g/dL
  TBIL: 0.002 mg/dL
  TC: 76.4 mg/dL
  TG: 96 mg/dL
  TP: 5.4 g/dL
  gamma-GTP: 1.6 IU/L
[1]
  TERMINAL_BW: 205.2 g
  APTT: 23.3 s
